Legend:
Plasmodium falciparum [1] = experiment: Antimalarial activity against drug-sensitive Plasmodium falciparum TM4/8.2 after 48 hrs by SYBR Green1 dye based fluorescence assay; assay type: functional, organism-based; details: TM4/8.2, 48 h
Plasmodium falciparum [2] = experiment: Antimalarial activity against drug-resistant Plasmodium falciparum K1CB1 after 48 hrs by SYBR Green1 dye based fluorescence assay; assay type: functional, organism-based; details: K1CB1, 48 h
KB = experiment: Cytotoxicity against human KB cells; assay type: functional, cell-based
Vero = experiment: Cytotoxicity against African green monkey Vero cells; assay type: cell-based; details: Chlorocebus sabaeus

Measured: IC50

O=C(OC[C@]1(O)[C@@H](O)C=C[C@@H](O)[C@@H]1O)c1ccccc1
> 50 µM: all assays above

O=C(OC/C=C/C=C/[C@H](O)COC(=O)c1ccccc1)c1ccccc1
> 50 µM: all assays above

O=C(OC[C@]1(O)[C@H](Cl)C=C[C@H](O)[C@H]1O)c1ccccc1
> 50 µM: all assays above

O=C(OC[C@]1(O)[C@H](Cl)C=C[C@@H](OC(=O)c2ccccc2)[C@@H]1O)c1ccccc1
> 50 µM: all assays above

O=C(OCC1=C[C@H]2Oc3ccccc3C[C@H]2[C@@H](OC(=O)c2ccccc2)[C@@H]1O)c1ccccc1
> 50 µM: all assays above

CC1(C)O[C@H]2C=C[C@@H](OC(=O)c3ccccc3)[C@H](O)[C@@]2(COC(=O)c2ccccc2)O1
> 50 µM: all assays above

O=C(OC[C@]12O[C@H]1C=C[C@@H](OC(=O)c1ccccc1)[C@H]2O)c1ccccc1
> 50 µM: all assays above

CC(=O)O[C@H]1C=CC=C(COC(=O)c2ccccc2)[C@@H]1O
> 50 µM: all assays above

CC(=O)O[C@@H]1C=C[C@@H](OC(=O)c2ccccc2)[C@H](O)[C@]1(O)COC(=O)c1ccccc1
> 50 µM: all assays above

CC(=O)O[C@H]1C=C[C@@H](O)[C@H](O)[C@@]1(O)COC(=O)c1ccccc1
> 50 µM: all assays above

COc1ccc2c(c1)C[C@H]1[C@@H](OC(=O)c3ccccc3)[C@H](O)C(COC(=O)c3ccccc3)=C[C@H]1O2
> 50 µM: all assays above

CC(=O)O[C@H]1C=CC=C[C@@]1(O)COC(=O)c1ccccc1
> 50 µM: all assays above

CC(=O)O[C@H]1C=C[C@@H](Cl)[C@@](O)(COC(=O)c2ccccc2)[C@@H]1O
> 50 µM: all assays above

O=C(OC[C@]1(O)[C@H](OC(=O)c2ccccc2)C=C[C@@H](OC(=O)c2ccccc2)[C@@H]1O)c1ccccc1
> 50 µM: all assays above

O=C(OCC1=C[C@@H](O)[C@H](O)[C@H](OC(=O)c2ccccc2)[C@H]1O)c1ccccc1
> 50 µM: all assays above

Reference: ChEMBL document CHEMBL4371096, “Polyoxygenated Cyclohexenes and Their Chlorinated Derivatives from the Leaves of Uvaria cherrevensis” (J Nat Prod, 2019)
